Test [1] deals with CLP-induced sepsis rats. The procedure:
(§1) Sepsis was developed by cecal ligation puncture model (CLP) as described in several papers (Li G et al, Clin Exp Pharmacol Physiol. 2014; 41(7):459-68, Seija M et al, Shock. 2012; 38(4):403-10). Animals were anesthetized with ketamine (Ketolar 50 mg/ml) 90 mg/kg intraperitoneal (ip) and diazepam (Valium 10 mg/2 mL) 5 mg/kg ip. Under sterile conditions a 3-cm midline laparotomy was performed to allow exposure of the cecum, and a 4-0 silk ligature was placed 0.75 cm from the cecal tip. It was punctured once with a 14-gauge needle. A second ligature was placed 1.5 cm proximal to the first one and distal to the ileocecal valve to avoid intestinal obstruction. Three punctures were made in the cecum between the two ligatures with a 16-gauge needle. The cecum was gently squeezed until a 1-mm column of fecal material was exteriorized. The bowel was then returned to the abdomen and the incision was closed in layers. A sham operation (laparotomy and cecal exposure without any other manipulation) was performed as control. At the end of the operation, all rats were resuscitated with normal saline (50 ml/kg body weight) subcutaneously in a single dose and analgesic treatment with buprenorphine (buprex 0.3 mg/ml) 0.1 mg/kg every 12 hours immediately after surgery and until the day of killing.

In the next test the test system is KIM-1. As to conditions: sepsis+cil vs control (SHAM) levels; immunohistochemistry and Western blot; 48 h. On the procedure:
as §1
(§2) Immunohistochemistry was carried out as described previously (Humanes B et al, Kidney International. 2012; 82(6):652-663). […] The surface area labeled by antibodies was evaluated by quantitative image analysis as previously described (Lazaro A. et al. Antiox Redox Signal. 2005; 7:1285-1293). In brief, the percentage of the stained area was calculated as the ratio of suitable binary thresholded image and the total field area. […]
(§3) Western blotting was performed as described previously (Humanes B et al, Kidney International. 2012; 82(6):652-663). […] All signals were visualized with an Alliance 4.7 (Uvitec, Cambridge, UK) and analyzed by densitometric scanning (ImageJ; http://rsbweb.nih.gov/ij/index.html). […]
(Immunoblotting shows a protein as a band on a membrane.)

A further test has as its system cleaved caspase-3. As to conditions: septic rats; immunohistochemistry and Western blot of the renal cortex. The procedure: as §1, §2, §3
For another test, the system named is Cu/Zn SOD. As to conditions: septic rats; immunohistochemistry and Western blotting. The procedure:
as §1, §2, §3

A further test relates to cleaved caspase-8. As to conditions: septic rats; Western blot. On the procedure:
as §1, with “At the end of the operation, all rats were resuscitated with normal saline (50 ml/kg body weight) subcutaneously in a single dose and analgesic treatment with buprenorphine (buprex 0.3 mg/ml) 0.1 mg/kg every 12 hours immediately after surgery and until the day of killing.” left out
as §3

Another test relates to FasL. As to conditions: septic rats; Western blot. On the procedure:
as §1, with “At the end of the operation, all rats were resuscitated with normal saline (50 ml/kg body weight) subcutaneously in a single dose and analgesic treatment with buprenorphine (buprex 0.3 mg/ml) 0.1 mg/kg every 12 hours immediately after surgery and until the day of killing.” left out
as §3

In test [2] the test system is CLP-induced sepsis rats. On the procedure: as §1
Serum creatinine, blood urea nitrogen levels (BUN), proteins and other parameters were measured using the Dimension RxL autoanalyzer (Dade-Behring, Siemens, Eschborn, Germany). The glomerular filtration rate was calculated using the creatinine clearance rate.
The animals were randomly allocated into four groups (n=10 in each group): • i. sham-operated group, • ii. CLP group, • iii. sham-operated group+cilastatin, and • iv. CLP group+cilastatin.
(§4) In the treatment groups, the rats were treated with cilastatin 150 mg/kg ip immediately and at 24 h after induction of sepsis or the sham-operation. Cilastatin was substituted by vehicle (0.5 mL/100 g) in the non-treatment groups. […] All animals were then placed in the metabolic cages for 24-h urine collection.
(§5) Forty-eight (48) hours after the sepsis-induction/sham-operation, all rats were anesthetized with ketamine (10 mg/kg) and diazepam (4 mg/kg) and killed. Blood samples were collected by insertion of a cannula into the abdominal aorta, and serum was isolated by centrifugation in ACUETTE® Z Serum Sep Clot Activator tubes (Greiner bio-one), at 2000 rpm for 15 h at 4° C., and then stored at −80° C. until use. The kidneys were perfused with cold saline and quickly removed. Kidney samples were snap-frozen in liquid nitrogen and kept at −80° C. or fixed in 4% paraformaldehyde (24 h) and paraffin-embedded for the different studies.
This is another data set of the same source.

The conditions of test [3]: septic rats. The procedure: as §1, §4
(§6) Forty-eight (48) hours after the sepsis-induction/sham-operation, all rats were anesthetized with ketamine (10 mg/kg) and diazepam (4 mg/kg) and killed. Blood samples were collected by insertion of a cannula into the abdominal aorta, and serum was isolated by centrifugation in ACUETTE® Z Serum Sep Clot Activator tubes (Greiner bio-one), at 2000 rpm for 15 h at 4° C., and then stored at −80° C. until use. The kidneys were perfused with cold saline and quickly removed. […]

Test [4] relates to kidney tubular cell apoptosis. As to conditions: kidneys of septic rats. On the procedure:
as §1, §4, §6

Test [5] has as its system CLP-induced sepsis rats. As to conditions: day 2 after CLP surgery. On the procedure:
as §1, §4, §6

The next test deals with TGFβ. The following applies: septic animals; immunohistochemistry. On the procedure: as §1
(§7) Immunohistochemistry was carried out as described previously (Humanes B et al, Kidney International. 2012; 82(6):652-663). The primary antibodies used were polyclonal goat anti-rat TIM-1/KIM-1/HAVCR (1:20; R&D systems); anti-cleaved caspase-3 (Asp175) (1:50; Cell Signaling Technology, Inc., Beverly, Mass.) mouse monoclonal anti-4-HNE (1:75; Oxis International Inc., Foster City, Calif.); polyclonal rabbit anti-Cu/Zn SOD (1:1000; Assay Designs, Stressgen, Ann Arbor, Mich., USA); monoclonal mouse anti-CD68 (monocyte/macrophage, 1:125, Abd Serotec, Oxford, UK); polyclonal goat anti-VCAM-1 (1:100; Santa Cruz Biotechology, Inc., Beverly, Mass., USA); polyclonal rabbit anti-TGFβ1 antibody (1:100; Santa Cruz Biotechnology); monoclonal mouse anti-ICAM-1 (1:100; Santa Cruz). […] The surface area labeled by antibodies was evaluated by quantitative image analysis as previously described (Lazaro A. et al. Antiox Redox Signal. 2005; 7:1285-1293). In brief, the percentage of the stained area was calculated as the ratio of suitable binary thresholded image and the total field area. For each sample, the mean staining area was obtained by analysis of the entire sample.
as §4, §5

For another test, the system named is ICAM-1. As to conditions: septic rats; immunohistochemistry. The procedure:
as §1, §7, §4, §5

The next test relates to 4-HNE. The following applies: septic rats. On the procedure: as §1, §7, §4, §5
A further test deals with VCAM-1. The following applies: septic rats; immunohistochemistry. The procedure: as §1, §7, §4, §5
The next test concerns CD68. As to conditions: cilastatin-treated septic rats compared to the sepsis group. On the procedure:
as §1, §7, §4, §5

The mark [6] stands for this setting: sepsis+cil group, 48 hours after induction of sepsis, cilastatin 150 mg/kg ip immediately and at 24 h, mean±s.e.m.

Molecules are shown by their SMILES. “And” between values parts separate entries of the source, which are not always exact repeats. Equal values may be shown once.

As for `CC1(C)C[C@@H]1C(=O)N/C(=C\CCCCSC[C@H](N)C(=O)O)C(=O)O` [cilastatin, (Z)-7-[(2R)-2-Amino-3-hydroxy-3-oxopropyl]sulfanyl-2-{[(1S)-2,2-dimethylcyclopropanecarbonyl]amino}hept-2-enoic acid], in the test with CLP-induced sepsis rats [1] (cilastatin vs CLP plus vehicle, 48 h after CLP), the Decrease in mortality was 33% and 30%. The “Mortality (%)” value in the test with CLP-induced sepsis rats [1] (sepsis+cil group, monitored for 48 h after CLP, cilastatin 150 mg/kg immediately and at 24 h, 6 rats per group, sepsis vehicle group 83%) is 50%. Moreover, the KIM-1 protein level result with KIM-1 is “partially restored”. Besides, the “Elevated caspase-3 levels” value in the test on cleaved caspase-3 is on record as “significantly lowered”. In addition, the “Cu/Zn SOD expression in renal cortex” value in the test with Cu/Zn SOD is “able to restore its expression”. Also, in the test on cleaved caspase-8, the “Renal cortex cleaved caspase-8” value is listed as “attenuated”. For the same molecule, in the test with FasL, the “Renal cortex FasL” value is “attenuated”. In addition, in the test on CLP-induced sepsis rats [2] (CLP group with cilastatin vs CLP group, 48 h), the Protein excretion entry is reported as “significantly reduced”. For the same molecule, in the test on CLP-induced sepsis rats [2] (sepsis+cil group (fourth value, group not labelled), 48 hours, cilastatin 150 mg/kg ip, mean±s.e.m.), the Proteinuria came to 1889±347. In the test on CLP-induced sepsis rats [2] (setting [6]), this molecule yielded a Blood urea nitrogen of 75±7 and a Serum creatinine of 0.38±0.02. Further, the Glomerular filtration rate with CLP-induced sepsis rats [2] (sepsis+cil group, 48 hours, calculated using the creatinine clearance rate, cilastatin 150 mg/kg ip, mean±s.e.m.) is reported as 0.45±0.07. Further, in the test with CLP-induced sepsis rats [2] (septic animals, cilastatin 150 mg/kg ip, 48 h), the “Sepsis-induced dysfunctions: serum BUN and creatinine increase, glomerular filtration rate decrease” value is on record as “totally prevented”. The “Antioxidant capacity in urine” value in test [3] is “improved”. Moreover, the “Number of TUNEL-positive cells” value in test [4] is given as “significantly decreased”. Moreover, the “Semi-quantitative renal injury score” value in the test with CLP-induced sepsis rats [5] is listed as “reduced the renal injury score”. Also, the “TGFβ1 levels in renal tissue” value with TGFβ is recorded as “significantly decreased”. Also, the “Sepsis-induced increase of ICAM-1 expression” value in the test with ICAM-1 is recorded as “significantly reduced”. In addition, in the test on 4-HNE, the “Sepsis-enhanced 4-HNE staining in the kidneys” value is “completely prevented”. The “Sepsis-induced increase of VCAM-1 expression” value in the test with VCAM-1 is given as “significantly reduced”. Also, the “CD68 positive cells in renal samples” value with CD68 is “fewer”.

These data come from US11185522B2, “Cilastatin for use in the treatment of sepsis” (FUNDACIÓN PARA LA INVESTIGACIÓN BIOMÉDICA DEL HOSPITAL …, priority 2016, dated 2021).
